Reference: patent publication US5137907A, “1-(3-(4-(3,5-difluorophenoxy) phenoxy) propyl) - pyrazole, and its production and use” (Sumitomo Chemical Company, Limited, priority 1988, dated 1992)
Read-outs that look alike come from different tables or passages of the source.

Assays:
[1] = tested on: housefly (Musca domestica); assay: Inhibition test on housefly larvae reared in artificial culture until pupation, pupae examined (Test Example 2); format: in vivo
Description: Powdered animal feed (2 g) was thoroughly mixed with bran (14 g). An emulsifiable concentrate prepared according to Formulation Example 1 was diluted with water to a designed concentration, and the dilution was added to the above mixture. The resultant mixture was stirred well to make an artificial culture. Thirty larvae of housefly (Musca domestica) were reared therein until their pupation. The obtained pupae were placed into a plastic cup, and the concentration for 50% inhibition was examined in the same manner as in Test Example 1.

[2] = tested on: common mosquito (Culex pipiens pallens); assay: Inhibition of emergence of last instar larvae of common mosquito (Test Example 1); format: in vivo
Description: An emulsifiable concentrate prepared according to Formulation Example 1 was diluted with water to make a designed concentration. The dilution (0.7 ml) was added to 100 ml of distilled water. Last instar larvae of common mosquito (Culex pipiens pallens) were released therein and reared for 7 days until their emergence, and the concentration for 50% inhibition (IC50) was examined.

[3] = thirty larvae reared in artificial culture (powdered animal feed 2 g, bran 14 g, diluted emulsifiable concentrate) until pupation, pupae placed into plastic cup
[4] = last instar larvae, 0.7 ml dilution of emulsifiable concentrate added to 100 ml distilled water, reared for 7 days until emergence

Row | SMILES | concentration for 50% inhibition (IC50) [1, 3] | concentration for 50% inhibition (IC50) [2, 4] | further results
1 | Fc1cc(F)cc(Oc2ccc(OCCCn3cccn3)cc2)c1 [Pyrazole compound (I), 1-{3-[4-(3,5-difluorophenoxy)phenoxy]propyl}pyrazole] | 0.14 ppm | 0.000009 ppm | 
2 | Cn1nccc1COc1ccc(Oc2ccccc2)cc1 [(C)] | > 3 ppm |  | 
3 | c1ccc(Oc2ccc(OCCn3cccn3)cc2)cc1 [(D)] |  | 0.00023 ppm | 
4 | COC(C)(C)CCCC(C)CC=CC(C)=CC(=O)OC(C)C (centres unmarked) [(A), methoprene] |  |  | concentration for 50% inhibition (IC50) [1]: 2.3 ppm; concentration for 50% inhibition (IC50) ([2]; 168 h): 0.00018 ppm
5 | c1ccc(Oc2ccc(OCCCn3cccn3)cc2)cc1 [(F)] |  | 0.0007 ppm | 
6 | Clc1cc(Cl)cc(Oc2ccc(OCCCn3cccn3)cc2)c1 [(G)] | 1.8 ppm |  | 
7 | Clc1cccc(Oc2ccc(OCCn3cccn3)cc2)c1 [(E)] | 1.0 ppm |  | 
8 | c1ccc(Oc2ccc(OCCCc3ccccn3)cc2)cc1 [(B)] | > 3 ppm | 0.00013 ppm | 
